Columns and labels:
[1] = system: LG-histone adducts in RAW264.7 cells; assay: LG-lysyl adduct formation on histones in RAW264.7 cells (LC/ESI/MS/MS); type: cell-based, mouse
Experimental: (§1) FIGS. 11A, 11B, 11C, 11D, 11E, and 11F are a series of graphs showing that LG-lysine adducts of histones are found in cells and tissue, dependent on COX-2 activity. RAW264.7 mouse macrophage (A) and A549 human lung carcinoma (C) cells were stimulated to express COX-2, then given 20 μM arachidonic acid (AA) or vehicle. A subgroup of cells was preincubated 45 min with 50 μM indomethacin. As a measure of COX activity, PGE2 was determined by GC/MS from cell media prior to lysis (B and D). Nuclei were isolated, and histones were extracted and digested to individual amino acids prior to LC/EST/MS/MS analysis. *, p<0.05; ***, p<0.001 by ANOVA followed by Tukey's post-test (n≥5). (E). Histones were extracted from nuclei of rat liver, and analyzed as above for LG-lactam adduct. COX-2 protein was analyzed by Western blotting and plotted against lactam adduct levels. Each point corresponds to 1 liver, and shown is the line of regression (r^2=0.7237). Pearson r=0.8507; two-tailed p=0.0152. (F) LC-MS chromatograph of histones isolated from a rat liver with relatively high COX-2 expression (COX-2 band intensity of 117 arbitrary units).
(A). Scavengers were screened in RAW264.7 cells for the ability to decrease LG adduct formation on histones. Scavengers used were glucosamine (GA), 3-methoxysalicylamine (3-MoSA), pentylpyridoxamine (PPM), and 5-ethylsalicylamine (EtSA). Cells were stimulated to express COX-2, pretreated 45 min. with 500 μM scavenger or vehicle (H2O), and given 20 μM AA for 1 h before lysing and extracting histones. Histone proteins were analyzed by LC/ESI/MS/MS for LG-lysyl lactam adduct, n=2. (B) Stimulated A549 cells were pretreated with 30, 300, or 1000 μM EtSA prior to 1 h with 20 μM AA, and histones analyzed for LG-lysyl adduct. *, p<0.05 by one-way ANOVA followed by Dunnett's multiple comparisons post-test (n=3-5). (C). A549 cells were stimulated, pretreated 45 min. with 1000 μM EtSA or H2O vehicle, and given 20 μM AA for 1 h. Media was analyzed by GC/MS for PGE2 (n=3). There was no effect on PGE2 production at lower doses of EtSA (data not shown).
To stimulate COX-2 expression, A549 or RAW264.7 cells were treated overnight with 5 ng/mL IL-1B (A549) or 10 μg/mL LPS and 10 U/mL IFNγ (RAW264.7) in serum-free medium. When indicated, cells were pretreated with indomethacin, aldehyde scavengers (glucosamine, 3-MoSA, PPM or EtSA), or vehicle (ethanol for indomethacin, H2O for scavengers) for 45 min, and then given 20 μM arachidonic acid (AA) or DMSO vehicle for 1 h before lysing.
Cultured cells were lysed in hypotonic buffer (10 mM Tris/10 mM NaCl/3 mM MgCl2) containing 1 mM pyridoxamine and 100 μM indomethacin to prevent the artifactual formation of LGE2 during the lytic process. […] Protein concentration was determined using the method of Bradford. […]

[2] = system: LG-histone adducts in A549 cells; assay: LG-lysyl adduct formation on histones in A549 cells (LC/ESI/MS/MS); type: cell-based, human; settings: COX-2-stimulated A549, 20 μM AA, 50 μM indomethacin preincubated 45 min
Experimental: as §1, with “(F) LC-MS chromatograph of histones isolated from a rat liver with relatively high COX-2 expression (COX-2 band intensity of 117 arbitrary units).” left out
(A). […] Histone proteins were analyzed by LC/ESI/MS/MS for LG-lysyl lactam adduct, n=2. (B) Stimulated A549 cells were pretreated with 30, 300, or 1000 μM EtSA prior to 1 h with 20 μM AA, and histones analyzed for LG-lysyl adduct. *, p<0.05 by one-way ANOVA followed by Dunnett's multiple comparisons post-test (n=3-5). […] Media was analyzed by GC/MS for PGE2 (n=3). […]

[3] = Reaction rate of scavengers with dicarbonyl electrophiles / LG relative to lysine; settings: faster than lysine
Excerpt: Under conditions such as inflammation and/or accumulated mutations, epithelial cells and adjacent immune cells express genes encoding enzymes involved in carcinogenesis, such as prostaglandin-endoperoxide synthase (PGHS2; COX2), NADPH oxidases, and spermine oxidase. The products of these enzymes (prostaglandins, O2D, and H2O2 plus 3-aminopropanal) lead to formation of dicarbonyl electrophiles: levuglandins (LGs), malondialdehyde (MDA), 4-oxo-nonenal (4-O NE), and acrolein. Electrophiles may lead to immune dysfunction and neoplastic risk by forming adducts with proteins and DNA11-15. However, the role of these reactive aldehydes in colon carcinogenesis is previously unknown. The present inventors have discovered that the level of LG-protein adducts is increased in the colon tissues of i) human ulcerative colitis (UC), colitis-associated carcinogenesis (CAC), and CRC; ii) mice treated with azoxymethane-dextran sulfate sodium (AOM-DSS), a model of CAC; and iii) transgenic mice with a tamoxifen-inducible disruption of Apc using the colon-specific, caudal type homeobox 2 (CDX2) Cre (CDX2P-CreERT2;Apcff), which recapitulates sporadic/genetically-driven CRC. […]

lysyl-LG adducts = assay: Lysyl-LG adducts in gastric tissues of H. pylori-infected mice (LC/ESI/MS/MS); type: in vivo; settings: H. pylori infected mice treated for 8 weeks
Experimental: FIGS. 15A, 15B, and 15C are graphs showing C57BL/6 (A) or INS-GAS mice (B) were infected for 8 weeks with H. pylori PMSS1. Lysyl-LG adducts were measured in the gastric tissues by LC/ESI/MS/MS. *P<0.05. (C) Lysyl-LG adducts concentration was determined in AGS cells infected (plain bars) or not (open bars) with H. pylori PMSS1 for 24 h, in the presence or absence of EtSA. *P<0.05 vs. uninfected cells. § P<0.05 vs. infected cells without EtSA.
FIG. 17 is a graph showing reduction in the concentration of lysyl-levuglandin adducts in the stomachs of H. pylori infected mice treated with 2-hydroxybenzylamine for 8 weeks.
As discussed further in the Examples, the human gastric epithelial cell line AGS was infected with Hp PMSS1±10 mM EtSA. FVB/N insulin-gastrin (INS-GAS) mice and Mongolian gerbils were infected for 8 wk with Hp PMSS1 and 7.13, respectively; EtSA (0.75% in water) was given to animals beginning one wk post-infection. Lys-LG adducts, a marker of electrophile reactions, and EtSA were quantified by LC/EST/MS/MS. Histology was analyzed on H&E staining. DNA damage was evaluated by pH2AX staining. Hp colonization was quantified by culture. Mucosal immune responses were determined by RNA profiling and by Luminex assay. Mice were imaged using PET/CT with ^18F-FDG (inflammation marker) and ^18F—NaF (tumor marker). […]

oxidative damage = settings: mice; cited from earlier work

COc1ccc2c(c1)c(CC(=O)O)c(C)n2C(=O)c1ccc(Cl)cc1 [indomethacin, reference compound]
LG-histone adduct formation ([1]; COX-2-stimulated RAW264.7, 20 μM AA, 50 μM indomethacin preincubated 45 min): blocked | LG-histone adduct formation [2]: blocked

pentylpyridoxamine [reference compound]
LG adduct formation on histones ([1]; stimulated RAW264.7, 500 μM scavenger 45 min, 20 μM AA 1 h): partially inhibited

NCc1ccccc1O [2-HOBA, 2-hydroxybenzylamine]
rate of reaction with dicarbonyl electrophiles [3]: 3 orders of magnitude | concentration of lysyl-levuglandin adducts in the stomachs (lysyl-LG adducts): reduction | oxidative damage in models of hypertension and Alzheimer's disease (oxidative damage): protects mice from oxidative damage
